Each structure is given as a SMILES string. Where a name gives a salt, the structure may show the parent alone.

The values below come from patent US20190337924A1, “SUBSTITUTED HYDANTOIN AND THIOHYDANTOIN DERIVATIVES AS ANDROGEN RECEPTOR ANTAGONISTS” (Janssen Pharmaceutica NV, priority 2016, published 2019).

Data set [1] relates to VCaP cells. Briefly: Prostate Cancer Cell Viability Assay-VCaP. The data set is classed as cell-based. The note with it: Homo sapiens, 120 h, 10% Charcoal Stripped Serum, 5 days, CellTiter-Glo, * n = 1. How it is done:
VCaP cells were counted and seeded into black 384-well plates with clear bottoms at a concentration of 125,000 cells per mL in phenol red-free DMEM containing 10% Charcoal Stripped Serum. 16 μL of the suspension was added per well and incubated for 48 h to allow the cells to adhere. After 48 hours, a 12 point serial semilog dilution of each compound was added to the cells in 16 μL at a final concentration of 100 µM to 0.0003 μM. The compounds of Formula (I) were also run in antagonist mode using 30 pM R1881 in which 8 μL of the compound was added to the cells followed by 8 μL of R1881. After 5 days of incubation at 37° C., 16 μL Of CellTiter-Glo (Promega) was added to the cells and the relative luminescence units (RLUs) of each well determined using the Envision. The percent stimulation and % inhibition were determined for each sample and plotted using GraphPad Prism.
A general note: In ATP-based viability assays light output follows the ATP content of the culture.

Data set [2] relates to LNCaP WT. Briefly: LNCaP Proliferation Assay, LNCaP WT. The data set is classed as cell-based. The note with it: Homo sapiens, 96 h, 1% CSS, 4 days, CellTiter-Glo, normalized to 0.1 nM R1881 stimulation. How it is done: (§1) LNCaP cells were expanded in RPMI 10% FBS in T150 flasks. The cells were dislodged with 0.25% Trypsin, washed in complete media, centrifuged (300 g, 3 min), and the supernatant aspirated. The cells were resuspended in RPMI phenol-red free media with 1% charcoal-stripped serum (CSS) and counted using a ViCELL (Beckman-Coulter). 7500 cells were added to each well of a white optical bottom 384-well plate and incubated for 2 days at 37° C. 5% CO2. Compound dilutions were prepared in RPMI CSS using 50 mM stock solutions and added to the cells either alone (agonist mode) or in combination with 0.1 nM R1881 (antagonist mode). The plates were incubated for 4 days, followed by addition of CellTiter-Glo Luminescent Cell Viability kit reagent (Promega). The plates were placed on a shaker at 3000 rpm for 10 minutes and then read on an EnVision plate reader (Perkin Elmer) using Luminescence assay default settings. The data was analyzed, normalized to 0.1 nM R1881 stimulation, and plotted in GraphPad Prism.

The subject of data set [3] is LNCaP F876L. Briefly: LNCaP Proliferation Assay, LNCaP F876L. The data set is classed as cell-based. The note with it: Homo sapiens, 96 h, 1% CSS, 4 days, CellTiter-Glo, normalized to 0.1 nM R1881 stimulation. Here is the method:
as §1

`CC1(C)C(=O)N(c2ccc(C#N)c(C(F)(F)F)c2)C(=S)N1c1ccc(OC2CCNCC2)cc1` [Compound 1, 4-(4,4-Dimethyl-5-oxo-3-(4-(piperidin-4-yloxy)phenyl)-2-thioxoimidazolidin-1-yl)-2-(trifluoromethyl)benzonitrile]: in data set [1], the 50% inhibitory concentration (IC50) – broadly, the point on the concentration scale where inhibition reaches its midpoint – stood at 2310 nM.
As to `CN1CCC(Oc2ccc(N3C(=S)N(c4ccc(C#N)c(C(F)(F)F)c4)C(=O)C3(C)C)cc2)CC1` [Compound 2, 4-(4,4-Dimethyl-3-(4-((1-methylpiperidin-4-yl)oxy)phenyl)-5-oxo-2-thioxoimidazolidin-1-yl)-2-(trifluoromethyl)benzonitrile hydrochloride], the half-inhibitory concentration (IC50) in data set [2] was 1.37 µM; in data set [3], 1.31 µM.
`CC1(C)C(=O)N(c2ccc(C#N)c(C(F)(F)F)c2)C(=S)N1c1ccc(OC2CCNCC2)nc1` [Compound 3, 4-(4,4-Dimethyl-5-oxo-3-(6-(piperidin-4-yloxy)pyridin-3-yl)-2-thioxoimidazolidin-1-yl)-2-(trifluoromethyl)benzonitrile hydrochloride] displayed an IC50 in data set [1] of 4860 nM.
For `CN1CCC(Oc2ccc(N3C(=S)N(c4ccc(C#N)c(C(F)(F)F)c4)C(=O)C3(C)C)cn2)CC1` [Compound 4, 4-(4,4-Dimethyl-3-(6-((1-methylpiperidin-4-yl)oxy)pyridin-3-yl)-5-oxo-2-thioxoimidazolidin-1-yl)-2-(trifluoromethyl)benzonitrile hydrochloride], the values for the half-inhibitory concentration (IC50) in data set [2], in data set [1] and in data set [3] were 0.46 µM, 1660 nM and 0.85 µM, respectively.
Consider `CC1(C)C(=O)N(c2ccc(C#N)c(C(F)(F)F)c2)C(=S)N1c1cnc(OC2CCNCC2)nc1` [Compound 5, 4-(4,4-Dimethyl-5-oxo-3-(2-(piperidin-4-yloxy)pyrimidin-5-yl)-2-thioxoimidazolidin-1-yl)-2-(trifluoromethyl)benzonitrile], for which the melting point (in general, the temperature, or range, at which the solid turns liquid) turned out to be 239 °C. In addition, in data set [2], the half-inhibitory concentration (IC50) turned out to be 1.04 µM. Further, in data set [1], half-maximal inhibition (IC50) required 13200 nM. Besides, in data set [3], the IC50 is 0.95 µM.
Molecule `CN1CCC(Oc2ncc(N3C(=S)N(c4ccc(C#N)c(C(F)(F)F)c4)C(=O)C3(C)C)cn2)CC1` [Compound 6, 4-(4,4-Dimethyl-3-(2-((1-methylpiperidin-4-yl)oxy)pyrimidin-5-yl)-5-oxo-2-thioxoimidazolidin-1-yl)-2-(trifluoromethyl)benzonitrile] registered a melting point of 204.9 °C. Further, in data set [1], the IC50 is 18400 nM.
With `CC1(C)C(=O)N(c2ccc(C#N)c(Cl)c2)C(=S)N1c1ccc(OC2CCNCC2)cc1` [Compound 7, 2-Chloro-4-(4,4-dimethyl-5-oxo-3-(4-(piperidin-4-yloxy)phenyl)-2-thioxoimidazolidin-1-yl)benzonitrile hydrochloride], the concentration for half-maximal inhibition (IC50) in data set [2] is 10 µM; in data set [1], 1440 nM; in data set [3], 31.2 µM.
On to `CN1CCC(Oc2ccc(N3C(=S)N(c4ccc(C#N)c(Cl)c4)C(=O)C3(C)C)cc2)CC1` [Compound 8, 2-Chloro-4-(4,4-dimethyl-3-(4-((1-methylpiperidin-4-yl)oxy)phenyl)-5-oxo-2-thioxoimidazolidin-1-yl)benzonitrile hydrochloride], for which the 50% inhibitory concentration (IC50) in data set [1] worked out at 3480 nM.
For the molecule `CC1(C)C(=O)N(c2ccc(C#N)c(Cl)c2)C(=S)N1c1ccc(OC2CCNCC2)nc1` [Compound 9, 2-Chloro-4-(4,4-dimethyl-5-oxo-3-(6-(piperidin-4-yloxy)pyridin-3-yl)-2-thioxoimidazolidin-1-yl)benzonitrile hydrochloride], in data set [1], half-maximal inhibition (IC50) was put at 1680 nM.
Take `CN1CCC(Oc2ccc(N3C(=S)N(c4ccc(C#N)c(Cl)c4)C(=O)C3(C)C)cn2)CC1` [Compound 10, 2-Chloro-4-(4,4-dimethyl-3-(6-((1-methylpiperidin-4-yl)oxy)pyridin-3-yl)-5-oxo-2-thioxoimidazolidin-1-yl)benzonitrile hydrochloride]: the IC50 in data set [2] stood at 0.46 µM; in data set [1] it was 5540 nM; in data set [3] it was 0.83 µM.
Molecule `N#Cc1ccc(N2C(=O)C3(CCC3)N(c3ccc(OC4CCNCC4)cc3)C2=S)cc1C(F)(F)F` [Compound 11, 4-(8-Oxo-5-(4-(piperidin-4-yloxy)phenyl)-6-thioxo-5,7-diazaspiro[3.4]octan-7-yl)-2-(trifluoromethyl)benzonitrile] returned a melting point of 172.4 °C. Besides, in data set [1], the midpoint of inhibition, the IC50, lay at 1060 nM.
On the same counts, the results for `CN1CCC(Oc2ccc(N3C(=S)N(c4ccc(C#N)c(C(F)(F)F)c4)C(=O)C34CCC4)cc2)CC1` [Compound 12, 4-(5-(4-((1-Methylpiperidin-4-yl)oxy)phenyl)-8-oxo-6-thioxo-5,7-diazaspiro[3.4]octan-7-yl)-2-(trifluoromethyl)benzonitrile] are 99.3 °C and 21000 nM.
Take `N#Cc1ccc(N2C(=O)C3(CCC3)N(c3ccc(OC4CCNCC4)nc3)C2=S)cc1C(F)(F)F` [Compound 13, 4-(8-Oxo-5-(6-(piperidin-4-yloxy)pyridin-3-yl)-6-thioxo-5,7-diazaspiro[3.4]octan-7-yl)-2-(trifluoromethyl)benzonitrile hydrochloride]: the concentration for half-maximal inhibition (IC50) in data set [2] came to 109 µM; in data set [1], 540 nM.
`CN1CCC(Oc2ccc(N3C(=S)N(c4ccc(C#N)c(C(F)(F)F)c4)C(=O)C34CCC4)cn2)CC1` [Compound 14, 4-(5-(6-((1-Methylpiperidin-4-yl)oxy)pyridin-3-yl)-8-oxo-6-thioxo-5,7-diazaspiro[3.4]octan-7-yl)-2-(trifluoromethyl)benzonitrile]: the results for the IC50 in data set [2], in data set [1] and in data set [3] were 2.44 µM, 13100 nM and 1.25 µM, respectively.
Consider `N#Cc1ccc(N2C(=O)C3(CCC3)N(c3cnc(OC4CCNCC4)nc3)C2=S)cc1C(F)(F)F` [Compound 15, 4-(8-Oxo-5-(2-(piperidin-4-yloxy)pyrimidin-5-yl)-6-thioxo-5,7-diazaspiro[3.4]octan-7-yl)-2-(trifluoromethyl)benzonitrile], for which the melting point stood at 137.4 °C. The 50% inhibitory concentration (IC50) in data set [2] is 3.43 µM. For the same molecule, the 50% inhibitory concentration (IC50) in data set [3] worked out at 1.53 µM.
The molecule `CN1CCC(Oc2ncc(N3C(=S)N(c4ccc(C#N)c(C(F)(F)F)c4)C(=O)C34CCC4)cn2)CC1` [Compound 16, 4-(5-(2-((1-Methylpiperidin-4-yl)oxy)pyrimidin-5-yl)-8-oxo-6-thioxo-5,7-diazaspiro[3.4]octan-7-yl)-2-(trifluoromethyl)benzonitrile] gave a melting point of 161.9 °C. In data set [1], this molecule came in with a half-maximal inhibitory concentration (IC50) of 5290 nM.
The molecule `Cc1cc(N2C(=O)C3(CCC3)N(c3ccc(OC4CCN(C)CC4)cc3)C2=S)ccc1C#N` [Compound 17, 2-Methyl-4-(5-(4-((1-methylpiperidin-4-yl)oxy)phenyl)-8-oxo-6-thioxo-5,7-diazaspiro[3.4]octan-7-yl)benzonitrile] displayed a half-maximal inhibitory concentration (IC50) in data set [1] of 3420 nM.
Consider `Cc1cc(N2C(=O)C3(CCC3)N(c3ccc(OC4CCN(C)CC4)nc3)C2=S)ccc1C#N` [Compound 18, 2-Methyl-4-(5-(6-((1-methylpiperidin-4-yl)oxy)pyridin-3-yl)-8-oxo-6-thioxo-5,7-diazaspiro[3.4]octan-7-yl)benzonitrile], for which the IC50 came out at 1.53 µM in data set [2], 12100 nM in data set [1] and 0.84 µM in data set [3].
On to `COc1cc(N2C(=O)C3(CCC3)N(c3ccc(OC4CCN(C)CC4)cc3)C2=S)ccc1C#N` [Compound 19, 2-Methoxy-4-(5-(4-((1-methylpiperidin-4-yl)oxy)phenyl)-8-oxo-6-thioxo-5,7-diazaspiro[3.4]octan-7-yl)benzonitrile], for which the results for the 50% inhibitory concentration (IC50) in data set [2], in data set [1] and in data set [3] were 27.4 µM, 9870 nM and 21.4 µM, respectively.
The like results for `COc1cc(N2C(=O)C3(CCC3)N(c3ccc(OC4CCN(C)CC4)nc3)C2=S)ccc1C#N` [Compound 20, 2-Methoxy-4-(5-(6-((1-methylpiperidin-4-yl)oxy)pyridin-3-yl)-8-oxo-6-thioxo-5,7-diazaspiro[3.4]octan-7-yl)benzonitrile] were, in that order, 3.65 µM, 1400 nM and 1.69 µM.
Turning to `N#Cc1ccc(N2C(=O)C3(CCC3)N(c3ccc(OC4CCNCC4)cc3)C2=S)cc1Cl` [Compound 21, 2-Chloro-4-(8-oxo-5-(4-(piperidin-4-yloxy)phenyl)-6-thioxo-5,7-diazaspiro[3.4]octan-7-yl)benzonitrile], the melting point was determined as 211 °C. In addition, in data set [2], the IC50 turned out to be 2.23 µM. For the same molecule, in data set [1], the IC50 was 1250 nM. Moreover, the half-inhibitory concentration (IC50) in data set [3] amounted to 3.78 µM.
For `N#Cc1ccc(N2C(=O)C3(CCC3)N(c3ccc(OC4CCNCC4)nc3)C2=S)cc1Cl` [Compound 23, 2-Chloro-4-(8-oxo-5-(6-(piperidin-4-yloxy)pyridin-3-yl)-6-thioxo-5,7-diazaspiro[3.4]octan-7-yl)benzonitrile hydrochloride], the IC50 in data set [2] was 3.19 µM; in data set [1] it was 540 nM.
